Laboratory results published in ChEMBL document CHEMBL1201862, “PubChem BioAssay data set” (2004).
Active and inactive are the calls of the source. For most assays here, no stated cut-off is given here; in the data, actives have a measured EC50 and inactives only a lower limit.

Columns and labels:
[1] = viability of uninfected HEp-2 cells – cell-based, HTS, cytotoxicity control for RSV inhibitor project, dose response (AID 2410); format: functional; settings: human respiratory syncytial virus
[2] = alpha-synuclein stem-loop luciferase translation blockers – H4 neuroglioma cells, luminescence, confirmation (AID 1988); format: functional, cell-based
[3] = luciferase reporter signal suppression in cells – H4 neuroglioma cells, luminescence, dose response (AID 1990); format: functional, cell-based
[4] = Luminescence Cell-Based Dose Response HTS to Identify Inhibitors of 5'UTR Stem-Loop Driven Prion Protein mRNA Translation in H4 Neuroglioblastoma Cells. [Related pubchem assays: 1827 (Project Summary), 1813 (Primary HTS)]; format: functional
[5] = target: T1, Heat shock factor protein 1 (Mus musculus, UniProt P38532); test: decrease of HSF1-responsive luciferase luminescence – cell-based, NIH3T3, dose retest, confirmation (AID 2382); format: functional;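 further: NIH3T3 fibroblasts with HSF1-driven luciferase reporter stressed by proteasome inhibitor MG132; luminescence from HSF1-driven luciferase expression after 8 hours of MG132 stress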
T1 sequence (P38532 whole entry): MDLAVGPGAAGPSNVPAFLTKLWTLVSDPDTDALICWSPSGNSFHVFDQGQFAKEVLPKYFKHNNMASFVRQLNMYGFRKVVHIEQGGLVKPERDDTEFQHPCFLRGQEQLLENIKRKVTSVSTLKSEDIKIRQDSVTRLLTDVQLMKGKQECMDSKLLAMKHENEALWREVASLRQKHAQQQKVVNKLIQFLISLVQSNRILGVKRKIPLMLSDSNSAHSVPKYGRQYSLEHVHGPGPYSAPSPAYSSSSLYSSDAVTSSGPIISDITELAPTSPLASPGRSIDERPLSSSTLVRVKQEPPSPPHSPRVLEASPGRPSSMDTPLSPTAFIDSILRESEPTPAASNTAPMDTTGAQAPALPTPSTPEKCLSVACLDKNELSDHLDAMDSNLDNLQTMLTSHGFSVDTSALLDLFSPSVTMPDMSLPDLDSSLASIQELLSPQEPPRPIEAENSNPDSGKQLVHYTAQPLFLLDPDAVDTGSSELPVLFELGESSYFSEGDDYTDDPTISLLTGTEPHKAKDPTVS

INS1 = test: INS-1E survival protection against cytokine death – cell-based, luminescence, retest, dose response (AID 449756); format: functional; settings: Rattus norvegicus;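 further: cell death triggered by IL-1 beta plus TNF-alpha plus IFN-gamma mixture; protective hits raise ATP signal compared with cytokine alone wells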
[6] = target: T2, Corticotropin-releasing factor receptor 2/Corticotropin-releasing factor-binding protein (Homo sapiens, UniProt P24387+Q13324); test: activators of CRF receptor 2 with binding protein – uHTS hits, confirmation (AID 602473); format: functional; settings: read-out: EC50_Mean
T2 sequence (Q13324 whole entry): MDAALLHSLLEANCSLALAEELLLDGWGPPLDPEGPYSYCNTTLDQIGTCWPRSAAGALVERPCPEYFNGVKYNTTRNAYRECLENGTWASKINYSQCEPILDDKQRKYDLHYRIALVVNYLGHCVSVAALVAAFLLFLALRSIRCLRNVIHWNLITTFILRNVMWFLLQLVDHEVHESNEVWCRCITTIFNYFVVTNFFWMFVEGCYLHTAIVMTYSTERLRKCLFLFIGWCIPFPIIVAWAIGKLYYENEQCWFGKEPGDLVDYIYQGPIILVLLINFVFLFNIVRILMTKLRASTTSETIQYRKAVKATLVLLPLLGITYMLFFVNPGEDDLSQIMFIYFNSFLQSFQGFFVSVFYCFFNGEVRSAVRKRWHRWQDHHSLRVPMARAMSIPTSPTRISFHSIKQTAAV
T2 sequence (P24387 whole entry): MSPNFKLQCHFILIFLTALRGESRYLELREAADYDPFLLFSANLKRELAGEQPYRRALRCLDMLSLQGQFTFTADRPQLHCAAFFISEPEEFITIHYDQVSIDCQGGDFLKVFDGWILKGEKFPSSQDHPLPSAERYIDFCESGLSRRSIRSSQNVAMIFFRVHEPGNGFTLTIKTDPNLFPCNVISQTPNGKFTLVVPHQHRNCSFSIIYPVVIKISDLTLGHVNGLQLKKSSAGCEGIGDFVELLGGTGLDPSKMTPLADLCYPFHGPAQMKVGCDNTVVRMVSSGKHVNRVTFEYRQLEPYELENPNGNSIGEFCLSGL

[7] = target: T2, Corticotropin-releasing factor receptor 2/Corticotropin-releasing factor-binding protein; test: Dose Response confirmation of uHTS hits for small molecule antagonists of the CRF-binding protein and CRF-R2 receptor complex.; format: functional; settings: read-out: IC50_Mean
[8] = NIH3T3 cell viability loss – ATP luminescence, mouse fibroblasts, counter-screen, dose response (AID 2010); format: functional, cell-based;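 further: cells exposed to compound for about 90 hours before reading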
[9] = Trypanosoma cruzi growth suppression in host cells – NIH3T3 host cells, beta-gal luminescence, confirmation (AID 2044); format: functional, cell-based;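 further: intracellular parasites grown in NIH/3T3 mouse fibroblasts as host cells; luminescent beta-galactosidase reporter signal from transgenic T. cruzi replicating inside host cells; inhibitors lower the luminescence signal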
[10] = Luminescence Cell-Based Dose Retest to Confirm Inhibitors of Cancer Stem Cells. [Related pubchem assays (depositor defined):AID2717, AID2721]; format: functional; settings: Homo sapiens
[11] = system: Streptococcus sp. 'group A'; test: Streptococcus pyogenes SK(-)GAS viability under kanamycin – luminescence, BacTiterGlo, confirmation, counter-screen for streptokinase expression inhibitor project, dose response (AID 1900); format: functional, organism-based
Streptococcus = test: GAS UMAA2166 growth inhibition – luminescence, BacTiterGlo, counter-screen for streptokinase expression inhibitor project, dose response (AID 1915); format: functional, organism-based;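 further: potency for reduction of bacterial viability or growth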
Streptokinase A = target: T3, Streptokinase A (Streptococcus pyogenes serotype M1, UniProt P10520); test: viability-normalized secreted streptokinase activity reduction – plasminogen activation absorbance, OD405, dose response (AID 1914); format: functional, Streptococcus pyogenes M1 GAS;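 further: secreted streptokinase activity via plasminogen activation per viability signal from cell pellet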
T3 sequence (P10520 whole entry): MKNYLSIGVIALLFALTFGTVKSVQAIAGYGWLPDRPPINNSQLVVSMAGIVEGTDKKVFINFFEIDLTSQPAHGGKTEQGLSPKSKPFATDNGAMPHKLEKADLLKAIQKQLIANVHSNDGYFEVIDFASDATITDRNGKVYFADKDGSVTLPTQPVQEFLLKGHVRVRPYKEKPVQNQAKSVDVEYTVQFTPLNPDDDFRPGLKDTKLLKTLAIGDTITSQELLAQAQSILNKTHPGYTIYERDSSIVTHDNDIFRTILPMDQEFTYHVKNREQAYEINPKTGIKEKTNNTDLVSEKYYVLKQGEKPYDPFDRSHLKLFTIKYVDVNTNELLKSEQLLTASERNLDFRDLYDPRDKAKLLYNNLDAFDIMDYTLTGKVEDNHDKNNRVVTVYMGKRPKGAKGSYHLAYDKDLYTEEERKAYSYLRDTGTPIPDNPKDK

## COc1ccc(CCNC(=O)c2ccc3c(c2)N(Cc2ccc(F)cc2)CCS3)cc1OC
[1]
  CC50: 25.7 µM (active)

## CCOC(=O)c1ccc(NC(=O)c2cc3c(C)nn(-c4ccccc4Cl)c3s2)s1
[2]
  EC50: > 120 µM (not active)
[3]
  EC50: 15.3 µM (active)
[4]
  EC50: > 120 µM (not active)

## Cc1nn(Cc2ccc(F)cc2)c(C)c1NC(=O)c1cc(-c2ccc3c(c2)OCO3)on1
[2]
  EC50: > 120 µM (not active)
[3]
  EC50: 15.7 µM (active)
[4]
  EC50: > 120 µM (not active)

## CC1(OC(=O)CCc2ccccc2)C(=O)C=C2C=C(c3ccc(C#N)cc3)N(CCc3ccccn3)C=C2C1=O (centres undefined)
[5]
  EC50: > 195 µM (not active)

## COc1cc(OC)c2c3c(c(C4CCCCC4)nc2c1)CCC3
[1]
  CC50: 30.1 µM (active)

## CCCCCCSc1cc(-c2nc3ccc(C)cn3c2NCc2ccccc2)ccc1OC
INS1
  AC50: 6.87 µM (active)

## N#CCc1c(C#N)c(N)nc(N2CCCC2)c1C#N
[1]
  CC50: 19.6 µM (active)

## CCOC(=O)c1c(C)[nH]c(C)c1S(=O)(=O)NCCc1cccs1
[5]
  EC50: > 195 µM (not active)

## Cc1nc(N)sc1-c1csc(Nc2ccc(Cl)cn2)n1
[1]
  CC50: 7.95 µM (active)

## CCNC(=O)Nc1cc(S(=O)(=O)Nc2ccc(OC)cc2)ccc1N1CCOCC1
INS1
  AC50: 3.3 µM (active)

## COc1ccccc1CNC(=O)c1ccc2[nH]c3nc4ccccc4c-3nc2c1
[1]
  CC50: > 50 µM (active)

## CCc1ccccc1Nc1nc2ccccc2n1CC
[2]
  EC50: 23 µM (active)
[3]
  EC50: > 120 µM (not active)
[4]
  EC50: > 120 µM (not active)

## C[C@@H]1CN([C@H](C)CO)C(=O)c2cc(NC(=O)Nc3ccc(C(F)(F)F)cc3)ccc2O[C@H]1CN(C)S(=O)(=O)c1cccs1
INS1
  AC50: 27 µM (active)

## O=C(c1ccccc1)c1nc2ccccc2n(CCCn2c(=O)c(C(=O)c3ccccc3)nc3ccccc32)c1=O
[2]
  EC50: > 120 µM (not active)
[3]
  EC50: 33.3 µM (active)
[4]
  EC50: 34.5 µM (active)

## O=C(c1ccco1)N1N=C(c2ccc(Br)cc2)CC1c1ccco1 (centres undefined)
INS1
  AC50: 19.8 µM (active)

## CCOC(=O)c1c(C)n(C)c2ccc(OC)c(NC(=O)CN3CCSCC3)c12
[5]
  EC50: > 195 µM (not active)

## CCCC(=O)Nc1nc(C)c(-c2csc(Nc3ccc(Cl)cc3)n2)s1
[1]
  CC50: 7.41 µM (active)

## CCc1ccccc1N1C(=O)C2CC(C)=C(C)CC2C1=O (centres undefined)
[6]
  EC50: > 53 µM (inactive)
[7]
  IC50: > 47.1 µM (inactive)

## O=C1N[C@@H](Cc2ccccc2)C(=O)N2[C@@H]3N(S(=O)(=O)c4ccc(F)cc4)c4ccccc4[C@]3(Br)C[C@@H]12
[1]
  CC50: > 50 µM (active)

## Cc1cc(C)n(CC(C)NC(=O)c2cc(COc3ccc(F)c(F)c3)on2)n1 (centres undefined)
[5]
  EC50: > 195 µM (not active)

## CCOC(=O)C1CCN(C(=O)CCc2c(C)nc3cc(-c4ccccc4)nn3c2C)CC1
[3]
  EC50: 18.2 µM (active)
[4]
  EC50: 27.1 µM (active)

## C#CCN(C#N)c1nc(NCC)nc(NC(C)C)n1
[2]
  EC50: 16 µM (active)
[3]
  EC50: 28.9 µM (active)
[4]
  EC50: > 120 µM (not active)

## COc1cc(OC)cc(C(=O)NCC(=O)OCc2cc(=O)oc3cc(OC)ccc23)c1
[6]
  EC50: > 53 µM (inactive)
[7]
  IC50: > 47.1 µM (inactive)

## O=C(CSc1nnc(C2COc3ccccc3O2)o1)NC1CCCCC1 (centres undefined)
[6]
  EC50: > 53 µM (inactive)
[7]
  IC50: > 47.1 µM (inactive)

## COc1cc(NS(=O)(=O)c2csc(C(N)=O)c2)cc(OC)c1
[5]
  EC50: > 195 µM (not active)

## CCC1(C)Cc2c(sc3nc(SC)nc(N)c23)CO1 (centres undefined)
[1]
  CC50: 31 µM (active)

## COc1ccc(CCNC(=O)Cc2cccs2)cc1
[5]
  EC50: > 195 µM (not active)

## Cc1nnc(C)c2c(C)n(C(c3ccccc3)c3ccccc3)c(C)c12
[1]
  CC50: 18.3 µM (active)
[8]
  EC50: > 60 µM (not active)
[9]
  EC50: 1.46 µM (active)

## COc1ccc(C2C(C#N)=C(N)Oc3cc4c(cc32)OCO4)cc1 (centres undefined)
[2]
  EC50: 10.9 µM (active)
[3]
  EC50: > 120 µM (not active)
[4]
  EC50: 74 µM (active)

## Cc1ccc2c(c1)c(-c1ccccc1)nc1nnnn12
[2]
  EC50: 120 µM (active)
[3]
  EC50: 17.5 µM (active)
[4]
  EC50: > 120 µM (not active)

## CCOc1ccccc1CNC(=O)c1nn(C)c2c1CS(=O)(=O)c1ccccc1-2
[2]
  EC50: > 120 µM (not active)
[3]
  EC50: > 120 µM (not active)
[4]
  EC50: > 120 µM (not active)

## COc1cccc(CC(=O)N[C@@H](CCSC)c2nc3ccccc3[nH]2)c1
[5]
  EC50: > 195 µM (not active)

## CC1(C)C[C@@H]2C[C@@](C)(CN2C(=O)c2cc(COc3cccc(C(F)(F)F)c3)on2)C1
INS1
  AC50: 11.6 µM (active)
[10]
  AC50: 2.23 µM (active)

## COc1cccc(C2[C@H](C)C3(CCN2C)OCCO3)c1 (some centres undefined)
[2]
  EC50: > 120 µM (not active)
[3]
  EC50: > 120 µM (not active)
[4]
  EC50: > 120 µM (not active)

## COc1ccc(-c2noc(CCCC(=O)NC3CCCC3)n2)cc1
[2]
  EC50: 13.3 µM (active)
[3]
  EC50: 11 µM (active)
[4]
  EC50: 14.1 µM (active)

## COc1ccc2oc(C(=O)OCC(=O)N(C)CC(=O)Nc3ccc(C)cc3)c(C)c2c1
[5]
  EC50: > 195 µM (not active)

## C/C=C/c1ccc(OCC(=O)Nc2ccc(OC)c(OC)c2)c(OC)c1
[5]
  EC50: > 195 µM (not active)

## CC(C)(C)n1nnnc1CN1CCC(NC(=O)NC2CCCCC2)CC1
[5]
  EC50: 33.9 µM (active)

## CCOc1ccc2c3c(c(=O)oc2c1OCC)CCCC3
[1]
  CC50: 44 µM (active)

## COc1cccc(OC)c1CC1SC(=O)NC1=O (centres undefined)
[1]
  CC50: 40.2 µM (active)

## Cc1ccc(C)c(C(=O)OCC(=O)Nc2cccc(S(=O)(=O)NC3=NCCCCC3)c2)c1
[1]
  CC50: 20.6 µM (active)

## Cc1cc(C(=O)COC(=O)c2ccco2)c(C)n1Cc1ccco1
[5]
  EC50: < 0.16 µM (active)

## CCC(C)(C)c1ccc(Oc2ccc(NC(=O)COC(=O)C3=COCCO3)cc2)cc1
[2]
  EC50: 8.92 µM (active)
[3]
  EC50: 6.08 µM (active)
[4]
  EC50: 10.1 µM (active)

## Cc1cc(C)c2c(C)n[nH]c2n1
INS1
  AC50: > 260 µM (inactive)

## CN(CCO)S(=O)(=O)c1ccc2c(c1)C(=NNC(N)=O)c1cc(S(=O)(=O)N(C)CCO)ccc1-2
[6]
  EC50: > 53 µM (inactive)
[7]
  IC50: > 47.1 µM (inactive)

## Cc1ccc(C)c2sc(N3CCN(C(=O)c4ccc([N+](=O)[O-])o4)CC3)nc12
[1]
  CC50: 16.9 µM (active)
[11]
  EC50: 2.67 µM (active)
Streptococcus
  EC50: 9.98 µM (active)
Streptokinase A
  EC50: 2.59 µM (active)
